Test results: PubChem BioAssay AID1963847 (Molecular Pharmacology Branch, DTP, NCI, 2024)

Tested on: 415267-285-R-J2-PDC complex spheroid viability
Experiment: Anticancer human tumor 415267-285-R-J2-PDC patient-derived breast carcinoma cell line growth inhibition [POLQ]
Conditions: for IC50: curve of first compound; for viability, T/C: stronger effect = lower value
Method in brief: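 PDC + HUVEC + MSC complex spheroids; POLQ inhibitors ± partner drugs; top conc. at/near clinical Cmax, else 10 microM (SN-38 1 microM), half-log dilutions; 37 degrees C, 5% CO2.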

[1] = second compound 0.0316 µM, first compound 0.0316 µM
[2] = second compound 0.0316 µM, first compound 0.1 µM
[3] = second compound 0.0316 µM, first compound 0.316 µM
[4] = second compound 0.0316 µM, first compound 1 µM
[5] = second compound 0.0316 µM, first compound 3.16 µM
[6] = second compound 0.0316 µM, first compound 10 µM
[7] = second compound 0.1 µM, first compound 0.0316 µM
[8] = second compound 0.1 µM, first compound 0.1 µM
[9] = second compound 0.1 µM, first compound 0.316 µM
[10] = second compound 0.1 µM, first compound 1 µM
[11] = second compound 0.1 µM, first compound 3.16 µM
[12] = second compound 0.1 µM, first compound 10 µM
[13] = second compound 0.316 µM, first compound 0.0316 µM
[14] = second compound 0.316 µM, first compound 0.1 µM
[15] = second compound 0.316 µM, first compound 0.316 µM
[16] = second compound 0.316 µM, first compound 1 µM
[17] = second compound 0.316 µM, first compound 3.16 µM
[18] = second compound 0.316 µM, first compound 10 µM
[19] = second compound 1 µM, first compound 0.0316 µM
[20] = second compound 1 µM, first compound 0.1 µM
[21] = second compound 1 µM, first compound 0.316 µM
[22] = second compound 1 µM, first compound 1 µM
[23] = second compound 1 µM, first compound 3.16 µM
[24] = second compound 1 µM, first compound 10 µM
[25] = second compound 3.16 µM, first compound 0.0316 µM
[26] = second compound 3.16 µM, first compound 0.1 µM
[27] = second compound 3.16 µM, first compound 0.316 µM
[28] = second compound 3.16 µM, first compound 1 µM
[29] = second compound 3.16 µM, first compound 3.16 µM
[30] = second compound 3.16 µM, first compound 10 µM
[31] = second compound 10 µM, first compound 0.0316 µM
[32] = second compound 10 µM, first compound 0.1 µM
[33] = second compound 10 µM, first compound 0.316 µM
[34] = second compound 10 µM, first compound 1 µM
[35] = second compound 10 µM, first compound 3.16 µM
[36] = second compound 10 µM, first compound 10 µM
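Further: spheroids exposed to compounds for one week before readout.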
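Wherever viability, T/C is given: luminescence used as stand-in measure of viable cells; 100% = DMSO vehicle control viability.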

C#Cc1c(F)ccc2cc(O)cc(-c3ncc4c(N5CC6CCC(C5)N6)nc(OCC56CCCN5CC(F)C6)nc4c3F)c12 (stereo unspecified) + Nc1ccc(C#CCN(C(=O)Cc2ncc(C(F)(F)F)cc2C(F)(F)F)c2ccc(F)cc2)nn1
IC50 (second compound 0.0316 µM): > 10 µM | IC50 (second compound 0.1 µM): > 10 µM | IC50 (second compound 0.316 µM): > 10 µM | IC50 (second compound 1 µM): > 10 µM | IC50 (second compound 3.16 µM): > 10 µM | IC50 (second compound 10 µM): > 10 µM | viability, T/C [1]: 105% | viability, T/C [2]: 110% | viability, T/C [3]: 84% | viability, T/C [4]: 101% | viability, T/C [5]: 97% | viability, T/C [6]: 99.5% | viability, T/C [7]: 100% | viability, T/C [8]: 96% | viability, T/C [9]: 94.4% | viability, T/C [10]: 98.6% | viability, T/C [11]: 97.3% | viability, T/C [12]: 92.3% | viability, T/C [13]: 114% | viability, T/C [14]: 110% | viability, T/C [15]: 113% | viability, T/C [16]: 111% | viability, T/C [17]: 98.5% | viability, T/C [18]: 102% | viability, T/C [19]: 105% | viability, T/C [20]: 102% | viability, T/C [21]: 95% | viability, T/C [22]: 112% | viability, T/C [23]: 96.1% | viability, T/C [24]: 105% | viability, T/C [25]: 113% | viability, T/C [26]: 106% | viability, T/C [27]: 105% | viability, T/C [28]: 106% | viability, T/C [29]: 115% | viability, T/C [30]: 111% | viability, T/C [31]: 97.7% | viability, T/C [32]: 103% | viability, T/C [33]: 102% | viability, T/C [34]: 96.4% | viability, T/C [35]: 102% | viability, T/C [36]: 116%

COc1ccc([C@@H](O)c2cc(-c3ncnc4cc(N5CCOCC5)ccc34)c(F)cc2Cl)nn1 + COC1C(OC(N)=O)C(O)C(Oc2ccc3c(O)c(NC(=O)c4ccc(O)c(CC=C(C)C)c4)c(=O)oc3c2C)OC1(C)C
IC50 (second compound 0.0316 µM): 8.63 µM | IC50 (second compound 0.1 µM): 8.03 µM | IC50 (second compound 0.316 µM): 7.09 µM | IC50 (second compound 1 µM): 9.18 µM | IC50 (second compound 3.16 µM): 8.15 µM | IC50 (second compound 10 µM): 9.75 µM | viability, T/C [1]: 104% | viability, T/C [2]: 92.5% | viability, T/C [3]: 97.9% | viability, T/C [4]: 89% | viability, T/C [5]: 78.4% | viability, T/C [6]: 45.3% | viability, T/C [7]: 95.3% | viability, T/C [8]: 104% | viability, T/C [9]: 97.9% | viability, T/C [10]: 106% | viability, T/C [11]: 99.5% | viability, T/C [12]: 38.3% | viability, T/C [13]: 101% | viability, T/C [14]: 98% | viability, T/C [15]: 101% | viability, T/C [16]: 87.7% | viability, T/C [17]: 77.9% | viability, T/C [18]: 38.3% | viability, T/C [19]: 94.3% | viability, T/C [20]: 97.2% | viability, T/C [21]: 97.1% | viability, T/C [22]: 100% | viability, T/C [23]: 76.2% | viability, T/C [24]: 48% | viability, T/C [25]: 105% | viability, T/C [26]: 108% | viability, T/C [27]: 97.1% | viability, T/C [28]: 103% | viability, T/C [29]: 79.7% | viability, T/C [30]: 43.5% | viability, T/C [31]: 102% | viability, T/C [32]: 97.8% | viability, T/C [33]: 98% | viability, T/C [34]: 96.3% | viability, T/C [35]: 90.9% | viability, T/C [36]: 48.8%

CCCS(=O)(=O)Nc1ccc(F)c(C(=O)c2c[nH]c3ncc(-c4ccc(Cl)cc4)cc23)c1F + COC1C(OC(N)=O)C(O)C(Oc2ccc3c(O)c(NC(=O)c4ccc(O)c(CC=C(C)C)c4)c(=O)oc3c2C)OC1(C)C
IC50 (second compound 0.0316 µM): > 10 µM | IC50 (second compound 0.1 µM): > 10 µM | IC50 (second compound 0.316 µM): > 10 µM | IC50 (second compound 1 µM): > 10 µM | IC50 (second compound 3.16 µM): > 10 µM | IC50 (second compound 10 µM): > 10 µM | viability, T/C [1]: 123% | viability, T/C [2]: 102% | viability, T/C [3]: 94.5% | viability, T/C [4]: 89% | viability, T/C [5]: 110% | viability, T/C [6]: 66.4% | viability, T/C [7]: 103% | viability, T/C [8]: 100% | viability, T/C [9]: 97.3% | viability, T/C [10]: 101% | viability, T/C [11]: 111% | viability, T/C [12]: 66.5% | viability, T/C [13]: 101% | viability, T/C [14]: 105% | viability, T/C [15]: 99% | viability, T/C [16]: 104% | viability, T/C [17]: 92.4% | viability, T/C [18]: 70.9% | viability, T/C [19]: 103% | viability, T/C [20]: 106% | viability, T/C [21]: 94% | viability, T/C [22]: 94.8% | viability, T/C [23]: 92.6% | viability, T/C [24]: 64.7% | viability, T/C [25]: 109% | viability, T/C [26]: 96.6% | viability, T/C [27]: 90.2% | viability, T/C [28]: 95.2% | viability, T/C [29]: 101% | viability, T/C [30]: 60.5% | viability, T/C [31]: 116% | viability, T/C [32]: 106% | viability, T/C [33]: 97.8% | viability, T/C [34]: 91.4% | viability, T/C [35]: 93.2% | viability, T/C [36]: 88.4%
